Here are results for eight compounds from patent EP2345639A1, “Cyclic hydroxylamine derivatives, their preparation and use as antioxidants” (ABIOGEN PHARMA S.p.A., priority 2009, dated 2011).

Series [1] in a line: Acid dissociation constants (pKa) by titration. The series is classed as physicochemical. Conditions: pH at semi-neutralization point of titration with 0.1 N NaOH or HCl. The method, then:
The following equipment was used during the implementation of all the examples: • for melting point determination a Buchi B-540 instrument was used; • the pKa is the pH at the semi-neutralization point of titration using a Mettler Toledo DL-50 instrument with a 0.1 N NaOH or HC! solution; • the ^1H-NMR spectra were recorded at 300 MHz and the ^13C-NMR spectra were recorded at 75 MHz using a Varian Unity 300 instrument; • spectrophotometric measurements were carried out using a Lambda Perkin Elmer 15 UV/Vis spectrophotometer for the DPPH assay and a Wallac Victor 1420 multilabel counter spectrophotometer.

Series [2] relates to C6 cells (rat glioma) and BAEC cells (bovine aortic endothelial). Kind of series: In vitro inhibition of CHP-induced oxidative stress (DCF fluorescence). Conditions: 500 µM CHP, 4, 20, 100 and 500 µM compound, 30 minutes; depending on the concentrations and cell line. The format is cell-based. As for the experimental part: The method used was essentially the one reported by Rüweler M. et al. ("Inhibition of peroxide-induced radical generation by plant polyphenols in C6 astroglioma cells" (2008) Toxicol in vitro 22, 1377-81), with a few minor modifications.
The cells were seeded in phenol-red free DMEM (Sigma Aldrich) into 96-well plates with 5% FBS and 20 mM HEPES at a density of 40,000 cells/well. After 48 hours, the medium was substituted by HBSS (Hanks' Balanced Salt Solution, Sigma) containing 10 µM of dihydro-2',7'-dichlorofluorescein diacetate (H2DCF-DA, Sigma Aldrich) and incubated in darkness for 30 minutes at 37 °C, in order to load the cells with fluorescent dye. H2DCF-DA was hydrolyzed enzymatically by the intracellular esterases to form non-fluorescent H2DCF, which was then rapidly oxidized to form 2',7'-dichlorofluorescein (DCF) being highly fluorescent in the presence of reactive species (RS). The intensity of DCF fluorescence is directly proportional to the amount of RS formed.
After carrying out two washes, the cells were exposed to 500 µM of CHP and various concentrations (4, 20, 100 and 500 µM) of the compounds of the invention for 30 minutes at 37 °C. Fluorescence was then measured, after cell washing, by a microplate reader at an excitation wavelength of 485 nm and an emission wavelength of 535 nm.
Six wells per plate per concentration of test composition (compound + CHP) and per control (HBSS without CHP) were measured and 12 wells were used as reference for CHP-induced stress. In addition, each 96-well plate contained 6 wells that received the highest concentration of the tested compounds without CHP, to investigate whether the compounds of the invention alone were able to induce cellular radical formation.
When using this assay, it should be borne in mind that DCF fluorescence is a generalized indicator of oxidative stress rather than of any particular reactive species, i.e. it is not a direct assay for H2O2 or other reactive species (Halliwell B, Whiteman M. (2004) "Measuring reactive species and oxidative damage in vivo and in cell culture: how should you do it and what do the results mean?" Br. J. Pharmacol. 142 231-255). Therefore, when an increase in DCF fluorescence induced by exposure of cells to CHP was measured, as was carried out in these assays, it was not possible to deduce which reactive species was responsible. Inhibition of CHP-induced fluorescence was evaluated by means of different concentrations of the compounds of the invention and comparative compounds such as Trolox and edaravone.

For a further series, the system named is female CD-1 mice. Kind of series: Acute toxicity study, intraperitoneal, single dose. Conditions: in vivo. As for the experimental part:
This study was carried out with the purpose of investigating the toxicity of a single dose of the listed compounds administered to ICR (CD-1) female mice. According to the current OECD guideline no.
The mice used were all female and were treated by intraperitoneal injection administration. The animals were observed individually and regularly for the first 4 hours and within 24 hours after administration, and then twice a day for the whole observation period. As soon as the animals were stabilized, observations at the weekend were undertaken once only during the day.
The evaluated parameters included the survival, body weight development, variations in skin and fur, changes in ocular, conjunctival and buccal mucous membranes, changes in activities of the respiratory, circulatory, autonomous and central nervous systems, changes in somatomotor activity and in behaviour.
Any appearance of tremors, convulsions, salivation, diarrhea, lethargy, drowsiness and coma were attentively and regularly monitored. At the end of the observation period, a post-mortem was carried out on all the animals.

In series [1], `CC1(C)CC(=O)C(C2CCCCN2O)C(=O)C1` (stereo not shown) [(3), 2-(1-hydroxypiperidin-2-yl)-5,5-dimethylcyclohexane-1,3-dione] registered a pKa1 of 3.47 and a pKa2 of 6.92.
Regarding `CC1(C)CC(=O)C(C2COCCN2O)C(=O)C1` (stereo not shown) [(4), 2-(4-hydroxymorpholin-3-yl)-5,5-dimethylcyclohexane-1,3-dione], in series [1], the pKa1 was found to be 2.28 and the pKa2 was 6.15. The “Inhibition of CHP-induced fluorescence” value in series [2] is “effective”. In addition, the toxic effect entry in the series on female CD-1 mice (Example 23) was “no toxic effect”.
As for `O=C1CC(c2ccccc2)CC(=O)C1C1COCCN1O` (stereo not shown) [(5), 2-(4-hydroxymorpholin-3-yl)-5-phenylcyclohexane-1,3-dione], in series [1], the pKa1 was found to be 2.71 and the pKa2 worked out at 6.44. In addition, the toxic effect entry in the series on female CD-1 mice (mouse) is listed as “no toxic effect”.
`O=C1CCC(=O)C1C1COCCN1O` (stereo not shown) [(7), 2-(4-hydroxymorpholin-3-yl)-cyclopentane-1,3-dione]: in series [1], the pKa1 is recorded as 2.32 and the pKa2 is reported as 4.98.
As for `O=C1c2ccccc2C(=O)C1C1COCCN1O` (stereo not shown) [(8), 2-(4-hydroxymorpholin-3-yl)-2H-indene-1,3-dione], in series [1], the pKa1 is listed as 2.17 and the pKa2 worked out at 5.98. Further, in series [2], the “Inhibition of CHP-induced fluorescence” value was “effective”. Also, the toxic effect entry in the series on female CD-1 mice (Example 23) is given as “no toxic effect”.
With `O=c1oc2ccccc2c(O)c1C1COCCN1O` (stereo not shown) [(10), 4-hydroxy-3-(4-hydroxymorpholin-3-yl)-2H-chromen-2-one], in series [1], the pKa1 is recorded as 2.70 and the pKa2 was 6.14. The toxic effect result in the series on female CD-1 mice (Example 23) was “no toxic effect”.
As to `CC1=NN(c2ccccc2)C(=O)C1C1COCCN1O` (stereo not shown) [(11), 4-(4-hydroxymorpholin-3-yl)-3-methyl-1-phenyl-1H-pyrazol-5(4H)-one], in series [1], the pKa1 is reported as 3.31 and the pKa2 is listed as 6.92. The “Inhibition of CHP-induced fluorescence” value in series [2] was “effective”.
Consider `CC1=NN(c2ccccc2)C(=O)C1` [edaravone, reference compound], for which the “Inhibition of CHP-induced fluorescence” value in series [2] was 10-50%.
